Experimental data from the NIST ThermoML archive (doi:10.1021/je201334p).

Tests used:
[1] = refractive index (Na D-line) (dimensionless); xn = mol fraction of the nth substance listed; conditions: 101 kPa, Liquid, Standard Abbe refractometry
[2] = xn = mol fraction of the nth substance listed; conditions: 101 kPa, Liquid; for speed of sound: Sing-around technique in a fixed-path interferometer; for mass density: Vibrating tube method

CCOS(=O)(=O)[O-].CCc1cccc[n+]1CC [1,2-diethylpyridinium ethylsulfate] + O
Conditions	mass density, 288.15 K [kg/m3]	mass density, 298.15 K [kg/m3]	mass density, 308.15 K [kg/m3]	refractive index, 288.15 K	refractive index, 298.15 K	refractive index, 308.15 K	speed of sound, 288.15 K [m/s]	speed of sound, 298.15 K [m/s]	speed of sound, 308.15 K [m/s]
[1], x2 = 0	–	–	–	1.51631	1.5135	1.51067	–	–	–
[1], x2 = 0.0987	–	–	–	1.51478	1.51196	1.50914	–	–	–
[1], x2 = 0.1089	–	–	–	1.51458	1.51176	1.50896	–	–	–
[1], x2 = 0.2048	–	–	–	1.51266	1.50984	1.50705	–	–	–
[1], x2 = 0.3037	–	–	–	1.51023	1.50743	1.50461	–	–	–
[1], x2 = 0.3979	–	–	–	1.50723	1.5044	1.50156	–	–	–
[1], x2 = 0.4922	–	–	–	1.50325	1.50042	1.49759	–	–	–
[1], x2 = 0.6018	–	–	–	1.49668	1.49381	1.49094	–	–	–
[1], x2 = 0.7084	–	–	–	1.48656	1.48367	1.48071	–	–	–
[1], x2 = 0.8029	–	–	–	1.47121	1.46831	1.46515	–	–	–
[1], x2 = 0.8984	–	–	–	1.43938	1.43661	1.43375	–	–	–
[1], x2 = 0.9493	–	–	–	1.4043	1.40198	1.40013	–	–	–
[2], x2 = 0	1225.93	1219.26	1212.65	–	–	–	1774.5	1745.2	1718.4
[2], x2 = 0.0987	1224.31	1217.63	1211.14	–	–	–	1778.2	1749.1	1722.4
[2], x2 = 0.1089	1224.06	1217.36	1210.87	–	–	–	1778.4	1749.5	1723
[2], x2 = 0.2048	1222.4	1215.83	1209.22	–	–	–	1781.1	1753.9	1727.5
[2], x2 = 0.3037	1219.81	1213.23	1206.65	–	–	–	1787.5	1760.5	1734.4
[2], x2 = 0.3979	1216.82	1210.11	1203.43	–	–	–	1794.1	1767.4	1741.1
[2], x2 = 0.4922	1212.76	1206.04	1199.29	–	–	–	1803.5	1776.8	1750.6
[2], x2 = 0.6018	1205.78	1198.92	1192.05	–	–	–	1817.3	1790.5	1763.7
[2], x2 = 0.7084	1194.96	1187.92	1180.85	–	–	–	1836.4	1809.2	1782.1
[2], x2 = 0.8029	1177.39	1170.26	1163.05	–	–	–	1854.8	1827.2	1799.4
[2], x2 = 0.8984	1138.4	1131.51	1124.48	–	–	–	1846.6	1821.6	1795.6
[2], x2 = 0.9493	1092.23	1086.65	1080.72	–	–	–	1759.2	1746.2	1731.8

CCCC[N+]1(C)CCCC1.N#CN=C=[N-] [1-butyl-1-methylpyrrolidinium dicyanamide] + O
Conditions	mass density, 288.15 K [kg/m3]	mass density, 298.15 K [kg/m3]	mass density, 308.15 K [kg/m3]	refractive index, 288.15 K	refractive index, 298.15 K	refractive index, 308.15 K	speed of sound, 288.15 K [m/s]	speed of sound, 298.15 K [m/s]	speed of sound, 308.15 K [m/s]
[1], x2 = 0	–	–	–	1.49968	1.49681	1.49392	–	–	–
[1], x2 = 0.096	–	–	–	1.49811	1.49519	1.49222	–	–	–
[1], x2 = 0.1277	–	–	–	1.49752	1.49459	1.49162	–	–	–
[1], x2 = 0.2116	–	–	–	1.4957	1.49278	1.48982	–	–	–
[1], x2 = 0.3077	–	–	–	1.49322	1.49032	1.4871	–	–	–
[1], x2 = 0.3942	–	–	–	1.49044	1.48751	1.48432	–	–	–
[1], x2 = 0.4952	–	–	–	1.48621	1.48329	1.47987	–	–	–
[1], x2 = 0.5023	–	–	–	1.4858	1.48284	1.47973	–	–	–
[1], x2 = 0.6047	–	–	–	1.4797	1.47674	1.47345	–	–	–
[1], x2 = 0.6137	–	–	–	1.47901	1.4761	1.47289	–	–	–
[1], x2 = 0.7061	–	–	–	1.47041	1.46748	1.46424	–	–	–
[1], x2 = 0.7177	–	–	–	1.46905	1.46612	1.46281	–	–	–
[1], x2 = 0.7571	–	–	–	1.46368	1.46078	1.45746	–	–	–
[1], x2 = 0.8208	–	–	–	1.45158	1.4487	1.44577	–	–	–
[1], x2 = 0.8468	–	–	–	1.44481	1.44172	1.43884	–	–	–
[1], x2 = 0.9034	–	–	–	1.42419	1.42145	1.41909	–	–	–
[1], x2 = 0.904	–	–	–	1.42386	1.42118	1.41891	–	–	–
[1], x2 = 0.9492	–	–	–	1.39597	1.39362	1.39175	–	–	–
[1], x2 = 0.9507	–	–	–	1.39472	1.39249	1.39055	–	–	–
[1], x2 = 0.9517	–	–	–	1.3939	1.39161	1.3897	–	–	–
[2], x2 = 0	1019.17	1013.53	1007.93	–	–	–	1836.9	1811.1	1781.9
[2], x2 = 0.096	1018.92	1013.25	1007.63	–	–	–	1836.1	1810.6	1782.4
[2], x2 = 0.1277	1018.84	1013.16	1007.52	–	–	–	1835.8	1810.4	1783.1
[2], x2 = 0.2116	1018.6	1012.89	1007.23	–	–	–	1835.3	1810.1	1783.8
[2], x2 = 0.3077	1018.31	1012.56	1006.85	–	–	–	1835.6	1810	1784.2
[2], x2 = 0.3942	1018.08	1012.27	1006.5	–	–	–	1834.9	1810	1785.7
[2], x2 = 0.4952	1017.78	1011.89	1006.03	–	–	–	1835.1	1810.8	1786.7
[2], x2 = 0.5023	1017.76	1011.86	1005.99	–	–	–	1835.2	1810.9	1786.7
[2], x2 = 0.6047	1017.45	1011.42	1005.42	–	–	–	1835.9	1811.8	1788
[2], x2 = 0.6137	1017.41	1011.37	1005.35	–	–	–	1835.7	1811.8	1788
[2], x2 = 0.7061	1016.91	1010.72	1004.54	–	–	–	1832.9	1809.6	1786.1
[2], x2 = 0.7177	1016.81	1010.61	1004.4	–	–	–	1832	1808.9	1785.6
[2], x2 = 0.7571	1016.39	1010.13	1003.86	–	–	–	1827.3	1804.9	1782.1
[2], x2 = 0.8208	1015.22	1008.91	1002.57	–	–	–	1810.9	1790.5	1769.4
[2], x2 = 0.8468	1014.46	1008.19	1001.84	–	–	–	1798.5	1779.7	1756.5
[2], x2 = 0.9034	1011.96	1005.98	999.84	–	–	–	1750.6	1738.3	1724.2
[2], x2 = 0.904	1011.92	1005.93	999.81	–	–	–	1749.8	1737.2	1723.6
[2], x2 = 0.9492	1008.27	1003.12	997.62	–	–	–	1671.5	1670.7	1666.7
[2], x2 = 0.9507	1008.1	1002.99	997.53	–	–	–	1667.9	1667.7	1664.3
[2], x2 = 0.9517	1007.98	1002.91	997.47	–	–	–	1665.4	1665.5	1662.5

CCCC[N+]1(C)CCCC1.O=S(=O)([O-])C(F)(F)F [1-butyl-1-methylpyrrolidinium trifluoromethanesulfonate] + O
Conditions	mass density, 288.15 K [kg/m3]	mass density, 298.15 K [kg/m3]	mass density, 308.15 K [kg/m3]	refractive index, 288.15 K	refractive index, 298.15 K	refractive index, 308.15 K	speed of sound, 288.15 K [m/s]	speed of sound, 298.15 K [m/s]	speed of sound, 308.15 K [m/s]
[1], x2 = 0	–	–	–	1.43557	1.43289	1.43018	–	–	–
[1], x2 = 0.0559	–	–	–	1.43506	1.4324	1.4297	–	–	–
[1], x2 = 0.1084	–	–	–	1.43458	1.43187	1.42918	–	–	–
[1], x2 = 0.2076	–	–	–	1.43345	1.43075	1.42808	–	–	–
[1], x2 = 0.2997	–	–	–	1.43221	1.42951	1.42683	–	–	–
[1], x2 = 0.408	–	–	–	1.43031	1.42762	1.4249	–	–	–
[1], x2 = 0.5038	–	–	–	1.42809	1.42536	1.42262	–	–	–
[1], x2 = 0.6003	–	–	–	1.42501	1.42221	1.41943	–	–	–
[1], x2 = 0.7052	–	–	–	1.41987	1.41708	1.4143	–	–	–
[1], x2 = 0.8095	–	–	–	1.41085	1.40814	1.40557	–	–	–
[1], x2 = 0.9018	–	–	–	1.39398	1.39161	1.38937	–	–	–
[1], x2 = 0.9533	–	–	–	1.37399	1.3721	1.37023	–	–	–
[2], x2 = 0	1260.33	1252.98	1245.78	–	–	–	1484.6	1460.1	1436.7
[2], x2 = 0.0559	1259.04	1251.78	1244.55	–	–	–	1486.9	1462.7	1439.7
[2], x2 = 0.1084	1257.8	1250.57	1243.3	–	–	–	1489.1	1464.9	1441.5
[2], x2 = 0.2076	1255.12	1247.82	1240.51	–	–	–	1494.5	1470.5	1447.2
[2], x2 = 0.2997	1252.05	1244.68	1237.3	–	–	–	1500.7	1476.9	1453.6
[2], x2 = 0.408	1247.41	1239.95	1232.47	–	–	–	1509.8	1486.1	1462.8
[2], x2 = 0.5038	1241.91	1234.36	1226.79	–	–	–	1520.1	1496.5	1473.2
[2], x2 = 0.6003	1234.21	1226.56	1218.89	–	–	–	1533.3	1510	1486.7
[2], x2 = 0.7052	1221.39	1213.67	1205.88	–	–	–	1552.3	1529.6	1506.6
[2], x2 = 0.8095	1198.77	1191.13	1183.37	–	–	–	1576.2	1555.8	1534.6
[2], x2 = 0.9018	1155.9	1148.95	1141.73	–	–	–	1595.4	1582.1	1566.6
[2], x2 = 0.9533	1104.38	1098.73	1092.63	–	–	–	1592.8	1589.4	1582.8
